Test results: paper PMC2944038 (Biochemical pharmacology, 2010)

Key:
MDCK cells = assay: WST-1 cytotoxicity study in MDCK cells; type: cell-based; details: for cytotoxicity in MDCK cells (in words): cytotoxic if cell viability 80% or less, 10 min exposure
[1] = WST-1 cytotoxicity study in MDCK cells; type: cell-based; details: dog, MDCK cells (ASBT-MDCK or OCTN2-MDCK, not specified)
[2] = molecular target: T1, human apical sodium-dependent bile acid transporter (ASBT; SLC10A2) (Homo sapiens, UniProt Q12908); assay: ASBT inhibition: taurocholate uptake into ASBT-MDCK cells; type: cell-based; details: for ASBT inhibitor: with consideration of cytotoxicity
T1 sequence (Q12908 1-348): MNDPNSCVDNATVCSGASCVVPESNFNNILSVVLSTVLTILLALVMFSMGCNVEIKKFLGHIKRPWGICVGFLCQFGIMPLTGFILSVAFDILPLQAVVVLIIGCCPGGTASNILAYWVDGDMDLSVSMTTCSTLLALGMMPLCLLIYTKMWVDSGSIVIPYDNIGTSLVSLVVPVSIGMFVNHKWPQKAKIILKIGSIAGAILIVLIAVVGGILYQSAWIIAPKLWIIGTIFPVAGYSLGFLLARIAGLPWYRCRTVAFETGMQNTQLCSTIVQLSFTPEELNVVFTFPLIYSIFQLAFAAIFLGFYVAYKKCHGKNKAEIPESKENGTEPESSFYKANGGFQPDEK

[3] = molecular target: T2, excitatory amino acid transporter 4 (EAAT4; SLC1A6) (Homo sapiens, UniProt P48664); assay: EAAT4 inhibition: glutamate uptake into EAAT4-HEK cells; type: cell-based; details: for EAAT4 inhibitor: with consideration of cytotoxicity
T2 sequence (P48664 1-564): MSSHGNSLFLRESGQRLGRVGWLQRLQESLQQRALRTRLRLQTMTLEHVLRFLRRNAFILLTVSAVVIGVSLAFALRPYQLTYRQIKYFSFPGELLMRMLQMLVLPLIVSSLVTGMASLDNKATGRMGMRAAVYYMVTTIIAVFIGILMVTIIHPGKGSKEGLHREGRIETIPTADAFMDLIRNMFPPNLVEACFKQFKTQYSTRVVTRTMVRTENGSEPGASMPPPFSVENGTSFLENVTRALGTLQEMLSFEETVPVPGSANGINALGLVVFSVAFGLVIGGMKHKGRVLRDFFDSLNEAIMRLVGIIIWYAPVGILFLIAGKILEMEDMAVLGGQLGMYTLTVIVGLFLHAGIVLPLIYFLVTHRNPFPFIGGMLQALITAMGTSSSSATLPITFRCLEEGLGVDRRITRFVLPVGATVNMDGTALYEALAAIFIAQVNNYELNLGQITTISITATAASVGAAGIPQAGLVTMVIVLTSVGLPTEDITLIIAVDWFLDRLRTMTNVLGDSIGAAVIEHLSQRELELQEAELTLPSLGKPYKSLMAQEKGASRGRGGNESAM

HEK cells = details: for cytotoxicity in HEK cells (in words): cytotoxic if cell viability 80% or less, 10 min exposure
[4] = molecular target: T1, human apical sodium-dependent bile acid transporter (ASBT; SLC10A2); details: known inhibitors selected for this study; cited from earlier work
[5] = molecular target: T3, human organic cation/carnitine transporter (OCTN2; SLC22A5) (Homo sapiens, UniProt O76082); assay: OCTN2 inhibition: L-carnitine uptake into OCTN2-MDCK cells; type: cell-based; details: for OCTN2 inhibitor: with consideration of cytotoxicity
T3 sequence (O76082 1-557): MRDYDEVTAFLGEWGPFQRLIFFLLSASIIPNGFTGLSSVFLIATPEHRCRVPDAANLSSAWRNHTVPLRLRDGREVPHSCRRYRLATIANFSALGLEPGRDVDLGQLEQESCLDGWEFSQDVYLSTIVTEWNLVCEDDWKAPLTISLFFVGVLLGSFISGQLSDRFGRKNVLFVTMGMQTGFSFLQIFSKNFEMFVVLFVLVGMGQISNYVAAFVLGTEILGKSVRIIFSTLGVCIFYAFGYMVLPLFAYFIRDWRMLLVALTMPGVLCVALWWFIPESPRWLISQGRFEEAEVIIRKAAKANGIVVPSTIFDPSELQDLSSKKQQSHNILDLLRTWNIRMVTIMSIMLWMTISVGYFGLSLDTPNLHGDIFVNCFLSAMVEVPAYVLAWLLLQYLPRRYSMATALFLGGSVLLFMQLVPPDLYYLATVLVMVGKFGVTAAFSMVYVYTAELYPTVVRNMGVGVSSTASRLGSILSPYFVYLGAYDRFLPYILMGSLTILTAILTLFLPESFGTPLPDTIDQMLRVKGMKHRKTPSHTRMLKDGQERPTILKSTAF

[6] = EAAT4-HEK, drug concentration not given

SMILES | cytotoxicity in MDCK cells (in words) (MDCK cells) | ASBT inhibitor [2] | EAAT4 inhibitor [3] | cytotoxicity in HEK cells (in words) (HEK cells) | other results
CCOC(=O)C1=C(COCCN)NC(C)=C(C(=O)OC)C1c1ccccc1Cl (stereo not shown) [Amlodipine, amlodipine] | cytotoxic to MDCK cells |  |  |  | cells non-viable (MDCK cells; MDCK cells): 60%; viability at 10 min, 100 μM [1]: 101 ± 6%; viability at 10 min, 500 μM [1]: 39.3%
CN(C)CCC(c1ccc(Cl)cc1)c1ccccn1 (stereo not shown) [Chlorpheniramine, chlorpheniramine] |  | only inhibited OCTN2 |  |  | 
CN1CCN(C2=Nc3cc(Cl)ccc3Nc3ccccc32)CC1 [Clozapine, clozapine] | not cytotoxic in MDCK cells |  | non-inhibitors of EAAT4 | reduced cell viability in HEK cells | 
COc1ccc([C@@H]2Sc3ccccc3N(CCN(C)C)C(=O)[C@@H]2OC(C)=O)cc1 [Diltiazem, diltiazem] |  |  |  |  | ASBT inhibition, previously reported [4]: known to inhibit both transporters
CC(C)n1c(/C=C/C(O)CC(O)CC(=O)O)c(-c2ccc(F)cc2)c2ccccc21 (stereo not shown) [Fluvastatin, fluvastatin] |  |  | inhibited all three transporters | without cytotoxicity | EAAT4 inhibition [3, 6]: ~35%; glutamate uptake [3, 6]: about 60%; ASBT inhibition, previously reported [4]: competitively inhibits ASBT; taurocholate uptake [2]: 4.51%; ASBT inhibition ([2]; ASBT-MDCK, drug concentration not given): over 90%; viability at 10 min [1]: 107%; OCTN2 inhibition (reduction of L-carnitine uptake) ([5]; OCTN2-MDCK, drug concentration not given): ~35%
COc1ccc2c(c1)c(CC(=O)O)c(C)n2C(=O)c1ccc(Cl)cc1 [Indomethacin, indomethacin] |  | only inhibited ASBT |  |  | OCTN2 inhibitor [5]: only inhibited ASBT
CC[C@H](C)C(=O)O[C@H]1C[C@@H](C)C=C2C=C[C@H](C)[C@H](CC[C@@H]3C[C@@H](O)CC(=O)O3)[C@H]21 [Lovastatin, lovastatin] |  |  | did not appreciably inhibit EAAT4 |  | 
COC(=O)C1=C(C)NC(C)=C(C(=O)OCCN(C)Cc2ccccc2)C1c1cccc([N+](=O)[O-])c1 (stereo not shown) [Nicardipine, nicardipine] | cytotoxic to MDCK cells | only inhibited ASBT |  |  | 
COC(=O)C1=C(C)NC(C)=C(C(=O)OCC(C)C)C1c1ccccc1[N+](=O)[O-] (stereo not shown) [Nisoldipine, nisoldipine] | cytotoxic to MDCK cells | only inhibited ASBT |  |  | viability at 10 min, 100 μM [1]: 56%; OCTN2 inhibitor [5]: not classed as OCTN2 inhibitors
CCC(C)(C)C(=O)O[C@H]1C[C@@H](C)C=C2C=C[C@H](C)[C@H](CC[C@@H]3C[C@@H](O)CC(=O)O3)[C@H]21 [Simvastatin, simvastatin] |  |  | did not appreciably inhibit EAAT4 |  | 
CSc1ccc2c(c1)N(CCC1CCCCN1C)c1ccccc1S2 (stereo not shown) [Thioridazine, thioridazine] | not cytotoxic in MDCK cells |  | non-inhibitors of EAAT4 | reduced cell viability in HEK cells | ASBT inhibition, previously reported [4]: known to inhibit both transporters; viable cells / cell viability (HEK cells; HEK cells, 10 min, drug concentration not given): 73.5%
Clc1ccc(C(Cn2ccnc2)OCc2ccsc2Cl)c(Cl)c1 (stereo not shown) [Tioconazole, tioconazole] | not in MDCK cells |  | non-inhibitors of EAAT4 | reduced cell viability in HEK cells | 
CN(C)CCCN1c2ccccc2Sc2ccc(Cl)cc21 [chlorpromazine] | not cytotoxic in MDCK cells |  |  |  | 
